Test results published in paper PMC2856487 (Journal of natural products, 2009).
Converted amounts (≈) assume the structure as drawn.

Legend:
[1] = test system: lettuce (Lactuca sativa cv. L. Iceberg); assay: initial phytotoxicity bioassay, lettuce; type: in vivo; settings: for Phytotoxic activity ranking: visual scale 0 to 5, 0 = no effect, 5 = no growth; for growth inhibition (in words): 1 mg/mL (highest concentration)
[2] = test system: duckweed (Lemna pausicostata); assay: duckweed growth bioassay; type: in vivo; settings: 168 h, read-out: I50, growth of duckweed
[3] = test system: D6 (chloroquin sensitive) strain of P. falciparum; assay: in vitro antiplasmodial activity, D6 clone; type: cell-based, Plasmodium falciparum; settings: for IC50: Plasmodium falciparum, D6, 72 h, read-out: D6-clone IC50; for antiplasmodial activity (in words): D6 strain
[4] = test system: bentgrass (Agrostis stolonifera); assay: initial phytotoxicity bioassay, bentgrass; type: in vivo; settings: for Phytotoxic activity ranking: visual scale 0 to 5, 0 = no effect, 5 = no growth; for growth inhibition (in words): 1 mg/mL (highest concentration)
[5] = cytotoxicity to SK-OV-3 cells; type: cell-based; settings: human
[6] = cytotoxicity to KB cells; type: cell-based; settings: human
[7] = test system: W2 (chloroquin resistant) strain of P. falciparum; assay: in vitro antiplasmodial activity, W2 clone; type: cell-based, Plasmodium falciparum; settings: for IC50: Plasmodium falciparum, W2, 72 h, read-out: W2-clone IC50; for antiplasmodial activity (in words): W2 strain
[8] = cytotoxicity to LLC-PK11 cells; type: cell-based; settings: pig
[9] = cytotoxicity to BT-549 cells; type: cell-based; settings: human
[10] = cytotoxicity to Vero cells; type: cell-based; settings: African green monkey, Vero cells (kidney fibroblast)
[11] = cytotoxicity to SK-MEL cells; type: cell-based; settings: human
[12] = test system: wheat coleoptile; settings: cited from earlier work
[13] = test system: a number of plant species; settings: cited from earlier work
[14] = LLC-PK11 cells (kidney epithelial)
[15] = BT-549 cells (breast ductal carcinoma)
[16] = SK-OV-3 cells (ovary carcinoma)
[17] = KB cells (oral epidermal carcinoma)

For C[C@@]12C=CC[C@]3(C)C(=O)O[C@H](C=C4COC(=O)C=C41)C23 (some centres unmarked) [Compound 7], the Phytotoxic activity ranking ([1]; 0.001 mg/mL) was 0, the Phytotoxic activity ranking ([1]; 0.01 mg/mL) was 1 and the Phytotoxic activity ranking ([1]; 0.1 mg/mL) was 5. The Phytotoxic activity ranking ([1]; 1.0 mg/mL) was 5, the IC50 [2] was 390 to 950 nM and the IC50 [3] was 0.17 µg/mL (≈ 0.624 µM). The Phytotoxic activity ranking ([4]; 0.001 mg/mL) was 0, the Phytotoxic activity ranking ([4]; 0.1 mg/mL) was 5 and the Phytotoxic activity ranking ([4]; 1.0 mg/mL) was 5.

Compound C[C@]12C=C[C@H](O)[C@]3(C)C(=O)O[C@@H](C13)[C@H]1O[C@]13COC(=O)C=C32 (some centres unmarked) [Compound 1] has a Phytotoxic activity ranking ([1]; 0.01 mg/mL) of 5, a Phytotoxic activity ranking ([1]; 0.1 mg/mL) of 5 and a Phytotoxic activity ranking ([1]; 1.0 mg/mL) of 5. The Phytotoxic activity ranking ([4]; 0.01 mg/mL) was 4, the Phytotoxic activity ranking ([4]; 0.1 mg/mL) was 5 and the Phytotoxic activity ranking ([4]; 1.0 mg/mL) was 5.

For C[C@]12C=CC[C@]3(C)C(=O)O[C@@H](C13)[C@H]1O[C@]13COC(=O)C=C32 (some centres unmarked) [Compound 2], the Phytotoxic activity ranking ([1]; 0.001 mg/mL) was 0, the Phytotoxic activity ranking ([1]; 0.01 mg/mL) was 3 and the Phytotoxic activity ranking ([1]; 0.1 mg/mL) was 5. For the same compound, the Phytotoxic activity ranking ([1]; 1.0 mg/mL) was 5, the IC50 at 48 h [5] was > 10 µg/mL and the IC50 [2] was 390 to 950 nM. For the same compound, the IC50 at 48 h [6] was > 10 µg/mL, the Phytotoxic activity ranking ([4]; 0.001 mg/mL) was 1 and the Phytotoxic activity ranking ([4]; 0.01 mg/mL) was 4. It also gave a Phytotoxic activity ranking ([4]; 0.1 mg/mL) of 5 and a Phytotoxic activity ranking ([4]; 1.0 mg/mL) of 5.

Compound C[C@]12CCC[C@](C)(C(=O)O)[C@@H]1C=C[C@]1(O)COC(=O)C[C@H]21 [Compound 12, oidiolactone-E] has a Phytotoxic activity ranking ([1]; 0.001 mg/mL) of 0, a Phytotoxic activity ranking ([1]; 0.01 mg/mL) of 2 and a Phytotoxic activity ranking ([1]; 0.1 mg/mL) of 4. It also gave a Phytotoxic activity ranking ([1]; 1.0 mg/mL) of 5, a Phytotoxic activity ranking ([4]; 0.001 mg/mL) of 0 and a Phytotoxic activity ranking ([4]; 0.01 mg/mL) of 1. The Phytotoxic activity ranking ([4]; 0.1 mg/mL) was 4 and the Phytotoxic activity ranking ([4]; 1.0 mg/mL) was 5.

With C=C1C(O)CC2[C@](C)(CCC[C@]2(C)C(=O)O)C1CC(=O)O (some centres unmarked) [Compound 13] the IC50 [7] was > 4.76 µg/mL, the “antiplasmodial activity (in words)” value [7] was “inactive” and the IC50 at 48 h [8, 14] was > 10 µg/mL. For the same compound, the Phytotoxic activity ranking ([1]; 0.001 mg/mL) was 0, the Phytotoxic activity ranking ([1]; 0.01 mg/mL) was 0 and the Phytotoxic activity ranking ([1]; 0.1 mg/mL) was 0. For the same compound, the “growth inhibition (in words)” value [1] was “inactive”, the Phytotoxic activity ranking ([1]; 1.0 mg/mL) was 1 and the IC50 at 48 h [9, 15] was > 10 µg/mL. The IC50 at 48 h [5, 16] was > 10 µg/mL, the IC50 at 48 h [6, 17] was > 10 µg/mL and the “antiplasmodial activity (in words)” value [3] was “inactive”. The IC50 [3] was > 4.76 µg/mL, the IC50 at 48 h [10] was > 4.76 µg/mL and the IC50 at 48 h ([11]; SK-MEL cells (malignant melanoma)) was > 10 µg/mL. It also gave a Phytotoxic activity ranking ([4]; 0.001 mg/mL) of 0, a Phytotoxic activity ranking ([4]; 0.01 mg/mL) of 0 and a Phytotoxic activity ranking ([4]; 0.1 mg/mL) of 0. The “growth inhibition (in words)” value [4] was “inactive” and the Phytotoxic activity ranking ([4]; 1.0 mg/mL) was 0.

Work on C[C@@]12C=C[C@H](O)[C@]3(C)C(=O)O[C@H](C=C4COC(=O)C=C41)C23 (some centres unmarked) [Compound 6] yielded a Phytotoxic activity ranking ([1]; 0.001 mg/mL) of 0, a Phytotoxic activity ranking ([1]; 0.01 mg/mL) of 5 and a Phytotoxic activity ranking ([1]; 0.1 mg/mL) of 5. For the same compound, the Phytotoxic activity ranking ([1]; 1.0 mg/mL) was 5, the IC50 [2] was 390 to 950 nM and the IC50 [3] was 0.043 µg/mL (≈ 0.149 µM). The Phytotoxic activity ranking ([4]; 0.001 mg/mL) was 0, the Phytotoxic activity ranking ([4]; 0.01 mg/mL) was 4 and the Phytotoxic activity ranking ([4]; 0.1 mg/mL) was 5. For the same compound, the Phytotoxic activity ranking ([4]; 1.0 mg/mL) was 5.

With CCN(CC)CCCC(C)Nc1ccnc2cc(Cl)ccc12 (centres unmarked) [chloroquine, reference compound] the IC50 [7] was 0.1 µg/mL (≈ 0.313 µM).

Work on C[C@@]12C[C@@H](O)C[C@]3(C)C4=CC(=O)OC[C@]45O[C@@H]5[C@@H](OC1=O)C23 (some centres unmarked) [Compound 4] yielded an IC50 [7] of 0.82 µg/mL (≈ 2.68 µM), a Phytotoxic activity ranking ([1]; 0.001 mg/mL) of 0 and a Phytotoxic activity ranking ([1]; 0.01 mg/mL) of 3. For the same compound, the Phytotoxic activity ranking ([1]; 0.1 mg/mL) was 5, the Phytotoxic activity ranking ([1]; 1.0 mg/mL) was 5 and the Phytotoxic activity ranking ([4]; 0.001 mg/mL) was 0. The Phytotoxic activity ranking ([4]; 0.01 mg/mL) was 2, the Phytotoxic activity ranking ([4]; 0.1 mg/mL) was 5 and the Phytotoxic activity ranking ([4]; 1.0 mg/mL) was 5.

For C[C@@]12CC[C@@H](O)[C@]3(C)C4=CC(=O)OC[C@]45O[C@@H]5[C@@H](OC1=O)C23 (some centres unmarked) [Compound 5], the “antiplasmodial activity (in words)” value [7] was “inactive”, the IC50 at 48 h [8, 14] was > 10 µg/mL and the Phytotoxic activity ranking ([1]; 0.001 mg/mL) was 1. For the same compound, the Phytotoxic activity ranking ([1]; 0.01 mg/mL) was 4, the Phytotoxic activity ranking ([1]; 0.1 mg/mL) was 5 and the Phytotoxic activity ranking ([1]; 1.0 mg/mL) was 5. For the same compound, the IC50 at 48 h [9, 15] was > 10 µg/mL, the IC50 at 48 h [5, 16] was > 10 µg/mL and the IC50 at 48 h [6, 17] was > 10 µg/mL. The “antiplasmodial activity (in words)” value [3] was “inactive”, the Phytotoxic activity ranking ([4]; 0.001 mg/mL) was 0 and the Phytotoxic activity ranking ([4]; 0.01 mg/mL) was 4. The Phytotoxic activity ranking ([4]; 0.1 mg/mL) was 5 and the Phytotoxic activity ranking ([4]; 1.0 mg/mL) was 5.

Work on C[C@@]12C[C@@H](O)C[C@]3(C)C4=CC(=O)OCC4=C[C@@H](OC1=O)C23 (some centres unmarked) [Compound 9] yielded an IC50 [7] of 0.084 µg/mL (≈ 0.289 µM), a Phytotoxic activity ranking ([1]; 0.01 mg/mL) of 2 and a Phytotoxic activity ranking ([1]; 0.1 mg/mL) of 5. The Phytotoxic activity ranking ([1]; 1.0 mg/mL) was 5, the IC50 [3] was 0.097 µg/mL (≈ 0.334 µM) and the “inhibition of wheat coleoptile elongation (in words)” value [12] was “weak inhibitor”. It also gave a Phytotoxic activity ranking ([4]; 0.001 mg/mL) of 2, a Phytotoxic activity ranking ([4]; 0.01 mg/mL) of 3 and a Phytotoxic activity ranking ([4]; 0.1 mg/mL) of 5. The Phytotoxic activity ranking ([4]; 1.0 mg/mL) was 5.

In the case of C[C@@]12CC[C@@H](O)[C@]3(C)C4=CC(=O)OCC4=C[C@@H](OC1=O)C23 (some centres unmarked) [Compound 10], the Phytotoxic activity ranking ([1]; 0.001 mg/mL) is reported as 0, the Phytotoxic activity ranking ([1]; 0.01 mg/mL) is reported as 1 and the Phytotoxic activity ranking ([1]; 0.1 mg/mL) is reported as 5. For the same compound, the Phytotoxic activity ranking ([1]; 1.0 mg/mL) was 5, the Phytotoxic activity ranking ([4]; 0.001 mg/mL) was 0 and the Phytotoxic activity ranking ([4]; 0.01 mg/mL) was 1. The Phytotoxic activity ranking ([4]; 0.1 mg/mL) was 5 and the Phytotoxic activity ranking ([4]; 1.0 mg/mL) was 5.

For C[C@@]12CC[C@@H](O)[C@]3(C)C(=O)O[C@H](C=C4COC(=O)C=C41)C23 (some centres unmarked) [Compound 8], the “antiplasmodial activity (in words)” value [7] was “inactive”, the IC50 at 48 h [8] was > 10 µg/mL and the Phytotoxic activity ranking ([1]; 0.001 mg/mL) was 0. The Phytotoxic activity ranking ([1]; 0.01 mg/mL) was 0, the Phytotoxic activity ranking ([1]; 0.1 mg/mL) was 2 and the “growth inhibition (in words)” value [1] was “total inhibition of growth”. The Phytotoxic activity ranking ([1]; 1.0 mg/mL) was 5, the IC50 at 48 h [9] was > 10 µg/mL and the IC50 at 48 h [5] was > 10 µg/mL. For the same compound, the IC50 at 48 h [6] was > 10 µg/mL, the “antiplasmodial activity (in words)” value [3] was “inactive” and the IC50 at 48 h [11] was > 10 µg/mL. It also gave a Phytotoxic activity ranking ([4]; 0.001 mg/mL) of 0, a Phytotoxic activity ranking ([4]; 0.01 mg/mL) of 0 and a Phytotoxic activity ranking ([4]; 0.1 mg/mL) of 3. For the same compound, the “growth inhibition (in words)” value [4] was “total inhibition of growth” and the Phytotoxic activity ranking ([4]; 1.0 mg/mL) was 5.

In the case of C[C@@]12CCC[C@]3(C)C4=CC(=O)OCC4=C[C@@H](OC1=O)C23 (some centres unmarked) [Compound 11], the “phytotoxicity (in words)” value [13] is given as “potent phytotoxin”, the Phytotoxic activity ranking ([1]; 0.001 mg/mL) is given as 0 and the Phytotoxic activity ranking ([1]; 0.01 mg/mL) is given as 2. It also gave a Phytotoxic activity ranking ([1]; 0.1 mg/mL) of 5, a Phytotoxic activity ranking ([1]; 1.0 mg/mL) of 5 and an IC50 [2] of 390 to 950 nM. For the same compound, the Phytotoxic activity ranking ([4]; 0.001 mg/mL) was 0, the Phytotoxic activity ranking ([4]; 0.01 mg/mL) was 3 and the Phytotoxic activity ranking ([4]; 0.1 mg/mL) was 5. It also gave a Phytotoxic activity ranking ([4]; 1.0 mg/mL) of 5.

With C[C@]12CC[C@@H](O)[C@]3(C)C(=O)O[C@@H](C13)[C@H]1O[C@]13COC(=O)C=C32 (some centres unmarked) [Compound 3] the IC50 [7] was > 4.76 µg/mL, the “antiplasmodial activity (in words)” value [7] was “inactive” and the IC50 at 48 h [8] was > 10 µg/mL. The Phytotoxic activity ranking ([1]; 0.001 mg/mL) was 0, the Phytotoxic activity ranking ([1]; 0.01 mg/mL) was 0 and the Phytotoxic activity ranking ([1]; 0.1 mg/mL) was 4. For the same compound, the “growth inhibition (in words)” value [1] was “total inhibition of growth”, the Phytotoxic activity ranking ([1]; 1.0 mg/mL) was 5 and the IC50 at 48 h [9] was > 10 µg/mL. The IC50 at 48 h [5] was > 10 µg/mL, the IC50 at 48 h [6] was > 10 µg/mL and the “antiplasmodial activity (in words)” value [3] was “inactive”. For the same compound, the IC50 [3] was > 4.76 µg/mL, the IC50 at 48 h [11] was > 10 µg/mL and the Phytotoxic activity ranking ([4]; 0.001 mg/mL) was 0. For the same compound, the Phytotoxic activity ranking ([4]; 0.01 mg/mL) was 0, the Phytotoxic activity ranking ([4]; 0.1 mg/mL) was 4 and the “growth inhibition (in words)” value [4] was “total inhibition of growth”. For the same compound, the Phytotoxic activity ranking ([4]; 1.0 mg/mL) was 5.
